Experimental data from the NIST ThermoML archive (doi:10.1021/je8001199).

Columns and labels:
[1] = 200 kPa, Liquid
[2] = xn = mol fraction of the nth substance listed; settings: 200 kPa, Liquid

NCCN [ethane-1,2-diamine]
[1]
Settings	mass density [kg/m3]
283.55 K	905.993
293.06 K	897.168
302.4 K	888.38
312.67 K	878.632
323.15 K	868.618
332.78 K	859.342
342.77 K	849.651
352.69 K	839.921

NCCN [ethane-1,2-diamine] + O
[2]
Settings	mass density [kg/m3]
282.78 K, x2 = 0.3967	956.193
282.92 K, x2 = 0.2017	929.116
282.96 K, x2 = 0.301	942.071
283.11 K, x2 = 0.8936	1000.8
283.13 K, x2 = 0.1028	917.186
283.26 K, x2 = 0.5026	973.123
283.47 K, x2 = 0.7687	1005.97
283.55 K, x2 = 0	905.993
283.69 K, x2 = 0.6032	989.21
284.35 K, x2 = 0.7026	1001.48
292.62 K, x2 = 0.8936	996.472
292.67 K, x2 = 0.5026	964.635
292.85 K, x2 = 0.7026	994.548
292.93 K, x2 = 0.2017	919.983
292.93 K, x2 = 0.301	933.047
293.05 K, x2 = 0.1028	908.064
293.06 K, x2 = 0	897.168
293.09 K, x2 = 0.3967	946.948
293.24 K, x2 = 0.7687	998.968
293.29 K, x2 = 0.6032	980.744
301.58 K, x2 = 0.7026	987.238
302.39 K, x2 = 0.6032	972.594
302.4 K, x2 = 0	888.38
302.47 K, x2 = 0.7687	992.107
302.85 K, x2 = 0.3967	938.019
302.85 K, x2 = 0.5026	955.328
302.96 K, x2 = 0.301	923.821
302.97 K, x2 = 0.8936	991.261
302.99 K, x2 = 0.1028	898.81
303.1 K, x2 = 0.2017	910.588
311.86 K, x2 = 0.7026	978.33
312.55 K, x2 = 0.6032	963.3
312.59 K, x2 = 0.7687	984.36
312.67 K, x2 = 0	878.632
312.77 K, x2 = 0.5026	946.166
313 K, x2 = 0.301	914.5
313.02 K, x2 = 0.8936	985.719
313.11 K, x2 = 0.1028	889.308
313.14 K, x2 = 0.2017	901.221
313.98 K, x2 = 0.3967	927.719
322.34 K, x2 = 0.7687	976.647
322.65 K, x2 = 0.6032	953.972
322.72 K, x2 = 0.7026	968.66
322.86 K, x2 = 0.301	905.205
322.88 K, x2 = 0.5026	936.708
322.93 K, x2 = 0.2017	891.98
323.04 K, x2 = 0.1028	879.883
323.15 K, x2 = 0	868.618
323.15 K, x2 = 0.8936	979.69
323.75 K, x2 = 0.3967	918.543
332.41 K, x2 = 0.7026	960.004
332.77 K, x2 = 0.7687	968.171
332.78 K, x2 = 0	859.342
332.89 K, x2 = 0.5026	927.173
332.96 K, x2 = 0.301	895.557
333.02 K, x2 = 0.6032	944.229
333.1 K, x2 = 0.1028	870.208
333.11 K, x2 = 0.2017	882.167
333.38 K, x2 = 0.8936	973.322
333.53 K, x2 = 0.3967	909.227
342.6 K, x2 = 0.7687	959.937
342.64 K, x2 = 0.5026	917.789
342.77 K, x2 = 0	849.651
342.81 K, x2 = 0.3967	900.276
342.98 K, x2 = 0.301	885.862
343.04 K, x2 = 0.1028	860.531
343.08 K, x2 = 0.7026	950.214
343.09 K, x2 = 0.8936	966.519
343.13 K, x2 = 0.2017	872.529
352.14 K, x2 = 0.7687	951.742
352.69 K, x2 = 0	839.921
352.71 K, x2 = 0.5026	907.894
352.83 K, x2 = 0.301	876.2
352.9 K, x2 = 0.8936	959.494
353.02 K, x2 = 0.1028	850.773
353.03 K, x2 = 0.2017	862.815
353.34 K, x2 = 0.3967	889.949
353.48 K, x2 = 0.7026	940.524

O [water] + NCCN
[2], x1 = 1
Settings	mass density [kg/m3]
283.4 K	999.862
293.28 K	998.365
302.62 K	995.966
312.13 K	992.723
322.73 K	988.284
332.94 K	983.292
342.53 K	978.02
352.19 K	972.189
